Common to all, as to format: cell-based
Experiment [1] concerns Candida albicans. As to the kind of experiment: Minimum inhibitory concentration (MIC100), CLSI M38-A2 broth dilution. As to the method: Several strains of Aspergillus flavus, Aspergillus fumigatus, and Candida albicans were tested. Trichophyton rubrum MYA4498 and T. mentagrophytes MYA4439, the QC isolates approved by the Clinical and Laboratory Standards Institute (CLSI) for dermatophyte susceptibility testing, can also be tested.
(§1) MIC testing was performed according to the CLSI M38A2 standard for the susceptibility testing of dermatophytes developed at the Center for Medical Mycology (See, Ghannoum et al., 2004, J Clin Microbial. 42(7): 2977-2979 CLSI, Reference Method for Broth Dilution Antifungal Susceptibility Testing of Filamentous Fungi: Approved Standard-Second Edition. CLSI document M38-A2 [ISBN 1-56238-668-9]. CLSI, 940 West Valley Road, Suite 1400, Wayne, Pa. 19087-1898 USA, 2008). Briefly, RPMI was the test medium, incubation temperature and time was 35° C. and 24 hours or 48 hours, respectively, and the inoculum size was 1-3×10^3 conidia/ml. The MIC endpoint was 100% inhibition as compared to the growth control.
The MIC range, MIC100 (defined as the minimum concentration required to inhibit 100% of the isolates tested), for the antifungal preparations of the invention and comparators was computed. The MFC range, MFC50, MFC90, and MFC100 for the antifungal preparations of the invention and comparators can also be computed.
Similarly, the lowest concentration (μg/mL) of a fluconazole formulation of the invention was compared to flucanozole alone that is required to inhibit 100% growth of various isolates of Candida albicans (MIC100) was determined (see Table 14). In this example, the fluconazole formulation of the invention comprises fluconazole formulated with a phosopholipid and a surfactant.
(In general: In broth dilution the organism is exposed to a series of concentrations in liquid medium.)

Experiment [2] concerns Aspergillus fumigatus. Briefly: MIC100 of voriconazole and terbinafine formulation individually and in combination, FICI. The note with it: for MIC100, Combination: concentration of the agent when voriconazole and terbinafine formulation are used in combination; for MIC: Aspergillus fumigatus, agent used individually, read-out: MIC100, Individual. How it is done: as §1
(§2) The lowest concentration (μg/mL) of either a terbinafine formulation of the invention or voriconazole, when used in combination, that is required to inhibit 100% of various isolates of Aspergillus flavus and Aspergillus fumigatus (MIC100) was determined (see Table 15). In this example, the terbinafine formulation of the invention comprises terbinafine formulated with a phospholipid and a surfactant.
(§3) Depicted in Table 15, the Fractional Inhibitory […] Index (FWD measures the degree of interaction between the two antifungal agents. A FICI value of greater than 4 indicates an antagonistic interaction; a FICI value of between 0.5 and 4 indicates no interaction; and a FICI value of less than 0.5 indicates a synergistic interaction. As depicted in Table 15, a lower concentration of either voriconazole or terbinafine formulation is generally able to inhibit 100% growth of various isolates of Aspergillus fumigatus and Aspergillus flavus when both antifungal agents are used in combination than the concentration required to inhibit 100% growth of various isolates of Aspergillus fumigatus and Aspergillus flavus when either voriconazole or terbinafine formulation is used individually.

For experiment [3], the system named is Aspergillus flavus. Described as above. To be noted: for MIC100, Combination: concentration of the agent when voriconazole and terbinafine formulation are used in combination; for MIC: Aspergillus flavus, agent used individually, read-out: MIC100, Individual. How it is done: as §1, §2, §3
Setting [4] is: A. fumigatus strain MRL No. 2456.
[5] abbreviates: A. fumigatus strain MRL No. 2471.
[6] abbreviates: A. fumigatus strain MRL No. 2574.
The mark [7] stands for this setting: A. fumigatus strain MRL No. 16627.
[8] abbreviates: A. fumigatus strain MRL No. 16629.

2 compounds from US20120245107A1, “METHODS OF REDUCING THE PROLIFERATION AND VIABLILITY OF MICROBIAL AGENTS” (Targeted Delivery Technologies Limited, priority 2009, published 2012) can be followed below.

In brackets after ≈: the same amount, converted by molar mass. Read-outs that look alike come from different tables or passages of the source. A value given as a limit tells only on which side of the number the result lay.

On to `OC(Cn1cncn1)(Cn1cncn1)c1ccc(F)cc1F` [Flucanozole, fluconazole], for which the MIC is above 64 µg/mL in experiment [1] (C. albicans strain MRL No. 648); above 128 µg/mL in experiment [1] (C. albicans strain MRL No. 9650); 32 µg/mL (≈ 104 µM) in experiment [1] (C. albicans strain MRL No. 9698); 0.25 µg/mL (≈ 0.816 µM) in experiment [1] (C. albicans strain MRL No. 14461); 0.25 µg/mL (≈ 0.816 µM) in experiment [1] (C. albicans strain MRL No. 14465).
With `C[C@@H](c1ncncc1F)[C@](O)(Cn1cncn1)c1ccc(F)cc1F` [Voriconazole, voriconazole], the “MIC100, Combination” value in experiment [2] (setting [4]) stood at 0.06 µg/mL; in experiment [2] (setting [5]) it was 0.06 µg/mL; in experiment [2] (setting [6]), 0.06 µg/mL; in experiment [2] (setting [7]), 0.03 µg/mL; in experiment [2] (setting [8]), 0.03 µg/mL; in experiment [3] (A. flavus strain MRL No. 17842), 0.12 µg/mL. In addition, the “MIC100, Combination” value was determined as 0.12 µg/mL in experiment [3] (A. flavus strain MRL No. 18736), 0.12 µg/mL in experiment [3] (A. flavus strain MRL No. 18743) and 0.03 µg/mL in experiment [3] (A. flavus strain MRL No. 18744). Also, the MIC in experiment [2] (setting [4]) worked out at 0.12 µg/mL; in experiment [2] (setting [5]) it was 0.25 µg/mL; in experiment [2] (setting [6]), 0.25 µg/mL; in experiment [2] (setting [7]) it was 0.5 µg/mL; in experiment [2] (setting [8]), 0.12 µg/mL; in experiment [3] (A. flavus strain MRL No. 17842) it was 0.25 µg/mL. In addition, the figures for the MIC in experiment [3] (A. flavus strain MRL No. 18736), in experiment [3] (A. flavus strain MRL No. 18743) and in experiment [3] (A. flavus strain MRL No. 18744) were 0.5 µg/mL, 0.5 µg/mL and 0.8 µg/mL, respectively.
